Measurements as given in the supplement of paper PMC8612539.
In brackets after ≈: the same amount, converted by molar mass.

System: Histophilus somni
Assay: minimum inhibitory concentration (MIC)
Procedure: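 Broth microdilution MIC (Sensititre BOPO7F bovine plate, CLSI methods) of 19 antimicrobials against field isolates of P. multocida, M. haemolytica, H. somni (deep nasopharyngeal swabs) and E. coli, Enterococcus spp. (rectal swabs) from weaned dairy heifers. Incubation 16-24 h at 35 C. MIC is the lowest concentration preventing visible growth. Values with <= or > lie at the tested range limits. Trimethoprim-sulfamethoxazole is given as the trimethoprim component of a 1:19 mixture.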

CCCNC[C@]1(O)[C@H](C)O[C@@H](O[C@H]2[C@H](C)[C@@H](O[C@@H]3O[C@H](C)C[C@H](N(C)C)[C@H]3O)[C@](C)(O)C[C@@H](C)CN[C@H](C)[C@@H](O)[C@](C)(O)[C@@H](CC)OC(=O)[C@@H]2C)C[C@@]1(C)OC [Tulathromycin]
Details | minimum inhibitory concentration [µg/mL]
isolate (source animal id): 3 | ≤ 8
isolate (source animal id): 4 | ≤ 8
isolate (source animal id): 7 | ≤ 8
isolate (source animal id): 14 | ≤ 8
isolate (source animal id): 15 | ≤ 8
isolate (source animal id): 17 | ≤ 8
isolate (source animal id): 18 | ≤ 8
isolate (source animal id): 20 | ≤ 8
isolate (source animal id): 23 | ≤ 8
isolate (source animal id): 45 | ≤ 8
isolate (source animal id): 53 | ≤ 8
isolate (source animal id): 83 | ≤ 8
isolate (source animal id): 88 | ≤ 8
isolate (source animal id): 92 | 16 (≈ 19.8 µM)
isolate (source animal id): 93 | ≤ 8
isolate (source animal id): 99 | ≤ 8
isolate (source animal id): 100 | 16 (≈ 19.8 µM)
isolate (source animal id): 105 | ≤ 8
isolate (source animal id): 107 | ≤ 8
isolate (source animal id): 108 | ≤ 8
isolate (source animal id): 109 | ≤ 8
isolate (source animal id): 110 | 16 (≈ 19.8 µM)
isolate (source animal id): 117 | ≤ 8
isolate (source animal id): 121 | ≤ 8
isolate (source animal id): 123 | ≤ 8
isolate (source animal id): 124 | ≤ 8
isolate (source animal id): 127 | ≤ 8
isolate (source animal id): 128 | ≤ 8
isolate (source animal id): 130 | 16 (≈ 19.8 µM)
isolate (source animal id): 132 | ≤ 8
isolate (source animal id): 135 | ≤ 8
isolate (source animal id): 140 | ≤ 8
isolate (source animal id): 141 | ≤ 8
isolate (source animal id): 142 | > 64
isolate (source animal id): 144 | ≤ 8
isolate (source animal id): 146 | 16 (≈ 19.8 µM)
isolate (source animal id): 147 | > 64
isolate (source animal id): 151 | ≤ 8
isolate (source animal id): 153 | 16 (≈ 19.8 µM)
isolate (source animal id): 154 | > 64
isolate (source animal id): 156 | > 64
isolate (source animal id): 157 | 16 (≈ 19.8 µM)
isolate (source animal id): 176 | ≤ 8
isolate (source animal id): 183 | ≤ 8
isolate (source animal id): 186 | ≤ 8
isolate (source animal id): 196 | ≤ 8
isolate (source animal id): 198 | ≤ 8
isolate (source animal id): 200 | 16 (≈ 19.8 µM)
isolate (source animal id): 206 | ≤ 8
isolate (source animal id): 208 | ≤ 8
isolate (source animal id): 210 | ≤ 8
isolate (source animal id): 212 | ≤ 8
isolate (source animal id): 215 | ≤ 8
isolate (source animal id): 216 | 16 (≈ 19.8 µM)
isolate (source animal id): 218 | ≤ 8
isolate (source animal id): 219 | ≤ 8
isolate (source animal id): 224 | ≤ 8
isolate (source animal id): 228 | ≤ 8
isolate (source animal id): 230 | ≤ 8
isolate (source animal id): 233 | ≤ 8
isolate (source animal id): 238 | ≤ 8
isolate (source animal id): 239 | ≤ 8
isolate (source animal id): 241 | ≤ 8
isolate (source animal id): 242 | ≤ 8
isolate (source animal id): 243 | ≤ 8
isolate (source animal id): 245 | ≤ 8
isolate (source animal id): 246 | ≤ 8
isolate (source animal id): 247 | ≤ 8
isolate (source animal id): 248 | ≤ 8
isolate (source animal id): 250 | ≤ 8
isolate (source animal id): 251 | ≤ 8
isolate (source animal id): 252 | ≤ 8
isolate (source animal id): 254 | ≤ 8
isolate (source animal id): 258 | ≤ 8
isolate (source animal id): 259 | ≤ 8
isolate (source animal id): 262 | ≤ 8
isolate (source animal id): 264 | ≤ 8
isolate (source animal id): 265 | ≤ 8
isolate (source animal id): 266 | ≤ 8
isolate (source animal id): 267 | ≤ 8
isolate (source animal id): 269 | ≤ 8
isolate (source animal id): 271 | ≤ 8
isolate (source animal id): 272 | ≤ 8
isolate (source animal id): 274 | ≤ 8
isolate (source animal id): 276 | ≤ 8
isolate (source animal id): 278 | ≤ 8
isolate (source animal id): 280 | ≤ 8
isolate (source animal id): 281 | ≤ 8
isolate (source animal id): 283 | ≤ 8
isolate (source animal id): 288 | ≤ 8
isolate (source animal id): 291 | ≤ 8
isolate (source animal id): 292 | ≤ 8
isolate (source animal id): 296 | ≤ 8
isolate (source animal id): 306 | ≤ 8
isolate (source animal id): 336 | 16 (≈ 19.8 µM)
isolate (source animal id): 337 | 16 (≈ 19.8 µM)
isolate (source animal id): 341 | ≤ 8

CC[C@H]1OC(=O)C[C@@H](O)[C@H](C)[C@@H](O[C@@H]2O[C@H](C)[C@@H](O[C@H]3C[C@@](C)(O)[C@@H](O)[C@H](C)O3)[C@H](N(C)C)[C@H]2O)[C@@H](CC=O)C[C@@H](C)C(=O)/C=C/C(C)=C/[C@@H]1CO[C@@H]1O[C@H](C)[C@@H](O)[C@@H](OC)[C@H]1OC [Tylosin]
Details | minimum inhibitory concentration [µg/mL]
isolate (source animal id): 3 | 8 (≈ 8.73 µM)
isolate (source animal id): 4 | 8 (≈ 8.73 µM)
isolate (source animal id): 7 | 8 (≈ 8.73 µM)
isolate (source animal id): 14 | 8 (≈ 8.73 µM)
isolate (source animal id): 15 | 8 (≈ 8.73 µM)
isolate (source animal id): 17 | 8 (≈ 8.73 µM)
isolate (source animal id): 18 | 8 (≈ 8.73 µM)
isolate (source animal id): 20 | 8 (≈ 8.73 µM)
isolate (source animal id): 23 | 2 (≈ 2.18 µM)
isolate (source animal id): 45 | 16 (≈ 17.5 µM)
isolate (source animal id): 53 | 16 (≈ 17.5 µM)
isolate (source animal id): 83 | 4 (≈ 4.37 µM)
isolate (source animal id): 88 | 8 (≈ 8.73 µM)
isolate (source animal id): 92 | 8 (≈ 8.73 µM)
isolate (source animal id): 93 | 8 (≈ 8.73 µM)
isolate (source animal id): 99 | 4 (≈ 4.37 µM)
isolate (source animal id): 100 | 8 (≈ 8.73 µM)
isolate (source animal id): 105 | 4 (≈ 4.37 µM)
isolate (source animal id): 107 | 8 (≈ 8.73 µM)
isolate (source animal id): 108 | 4 (≈ 4.37 µM)
isolate (source animal id): 109 | 8 (≈ 8.73 µM)
isolate (source animal id): 110 | 8 (≈ 8.73 µM)
isolate (source animal id): 117 | 4 (≈ 4.37 µM)
isolate (source animal id): 121 | 8 (≈ 8.73 µM)
isolate (source animal id): 123 | 8 (≈ 8.73 µM)
isolate (source animal id): 124 | 8 (≈ 8.73 µM)
isolate (source animal id): 127 | 8 (≈ 8.73 µM)
isolate (source animal id): 128 | 8 (≈ 8.73 µM)
isolate (source animal id): 130 | 2 (≈ 2.18 µM)
isolate (source animal id): 132 | 8 (≈ 8.73 µM)
isolate (source animal id): 135 | 8 (≈ 8.73 µM)
isolate (source animal id): 140 | 8 (≈ 8.73 µM)
isolate (source animal id): 141 | 4 (≈ 4.37 µM)
isolate (source animal id): 142 | > 32
isolate (source animal id): 144 | 8 (≈ 8.73 µM)
isolate (source animal id): 146 | 4 (≈ 4.37 µM)
isolate (source animal id): 147 | > 32
isolate (source animal id): 151 | 8 (≈ 8.73 µM)
isolate (source animal id): 153 | 16 (≈ 17.5 µM)
isolate (source animal id): 154 | > 32
isolate (source animal id): 156 | > 32
isolate (source animal id): 157 | 16 (≈ 17.5 µM)
isolate (source animal id): 176 | 32 (≈ 34.9 µM)
isolate (source animal id): 183 | 16 (≈ 17.5 µM)
isolate (source animal id): 186 | 32 (≈ 34.9 µM)
isolate (source animal id): 196 | 8 (≈ 8.73 µM)
isolate (source animal id): 198 | 8 (≈ 8.73 µM)
isolate (source animal id): 200 | 8 (≈ 8.73 µM)
isolate (source animal id): 206 | 8 (≈ 8.73 µM)
isolate (source animal id): 208 | 16 (≈ 17.5 µM)
isolate (source animal id): 210 | 8 (≈ 8.73 µM)
isolate (source animal id): 212 | 4 (≈ 4.37 µM)
isolate (source animal id): 215 | 8 (≈ 8.73 µM)
isolate (source animal id): 216 | 16 (≈ 17.5 µM)
isolate (source animal id): 218 | 8 (≈ 8.73 µM)
isolate (source animal id): 219 | 8 (≈ 8.73 µM)
isolate (source animal id): 224 | 8 (≈ 8.73 µM)
isolate (source animal id): 228 | 16 (≈ 17.5 µM)
isolate (source animal id): 230 | 32 (≈ 34.9 µM)
isolate (source animal id): 233 | 16 (≈ 17.5 µM)
isolate (source animal id): 238 | 2 (≈ 2.18 µM)
isolate (source animal id): 239 | 16 (≈ 17.5 µM)
isolate (source animal id): 241 | 16 (≈ 17.5 µM)
isolate (source animal id): 242 | 16 (≈ 17.5 µM)
isolate (source animal id): 243 | 16 (≈ 17.5 µM)
isolate (source animal id): 245 | 16 (≈ 17.5 µM)
isolate (source animal id): 246 | 8 (≈ 8.73 µM)
isolate (source animal id): 247 | 16 (≈ 17.5 µM)
isolate (source animal id): 248 | 4 (≈ 4.37 µM)
isolate (source animal id): 250 | 16 (≈ 17.5 µM)
isolate (source animal id): 251 | 32 (≈ 34.9 µM)
isolate (source animal id): 252 | 16 (≈ 17.5 µM)
isolate (source animal id): 254 | 16 (≈ 17.5 µM)
isolate (source animal id): 258 | 8 (≈ 8.73 µM)
isolate (source animal id): 259 | 8 (≈ 8.73 µM)
isolate (source animal id): 262 | 8 (≈ 8.73 µM)
isolate (source animal id): 264 | 4 (≈ 4.37 µM)
isolate (source animal id): 265 | 4 (≈ 4.37 µM)
isolate (source animal id): 266 | 8 (≈ 8.73 µM)
isolate (source animal id): 267 | 4 (≈ 4.37 µM)
isolate (source animal id): 269 | 4 (≈ 4.37 µM)
isolate (source animal id): 271 | 8 (≈ 8.73 µM)
isolate (source animal id): 272 | 4 (≈ 4.37 µM)
isolate (source animal id): 274 | 8 (≈ 8.73 µM)
isolate (source animal id): 276 | 8 (≈ 8.73 µM)
isolate (source animal id): 278 | 4 (≈ 4.37 µM)
isolate (source animal id): 280 | 4 (≈ 4.37 µM)
isolate (source animal id): 281 | 8 (≈ 8.73 µM)
isolate (source animal id): 283 | 4 (≈ 4.37 µM)
isolate (source animal id): 288 | 8 (≈ 8.73 µM)
isolate (source animal id): 291 | 8 (≈ 8.73 µM)
isolate (source animal id): 292 | 8 (≈ 8.73 µM)
isolate (source animal id): 296 | 4 (≈ 4.37 µM)
isolate (source animal id): 306 | 8 (≈ 8.73 µM)
isolate (source animal id): 336 | 8 (≈ 8.73 µM)
isolate (source animal id): 337 | 8 (≈ 8.73 µM)
isolate (source animal id): 341 | 8 (≈ 8.73 µM)
